Test results taken from US11266655B2, “Methods and compositions for treating urea cycle disorders” (Camp4 Therapeutics Corporation, priority 2019, dated 2022).
Like-named read-outs stand apart in the source and are kept apart here.

What was measured:
ARG1 = assay: RNA-seq of compound-treated primary human hepatocytes, ARG1 expression; assay type: cell-based; settings: for Relative ARGI level vs Untreated (±Standard Deviation): primary human hepatocytes
urea cycle genes = assay: RNA-seq of primary human hepatocytes, compounds that modulate multiple urea cycle-related genes; assay type: cell-based
CPS1 = assay: RNA-seq of compound-treated primary human hepatocytes, CPS1 expression; assay type: cell-based; settings: for Relative CPS1 level vs Untreated (±Standard Deviation): primary human hepatocytes, triplicate (Table 20, FIG. 12)
ASL = assay: RNA-seq of compound-treated primary human hepatocytes, ASL expression; assay type: cell-based; settings: for Relative ASL level vs Untreated (±Standard Deviation): primary human hepatocytes, triplicate (Table 25, FIG. 17)
SLC25A15 = assay: RNA-seq of compound-treated primary human hepatocytes, SLC25A15 expression; assay type: cell-based
ASS1 = assay: RNA-seq of compound-treated primary human hepatocytes, ASS1 expression; assay type: cell-based
OTC [1] = assay: RNA-seq of compound-treated primary human hepatocytes, OTC expression; assay type: cell-based; settings: for Relative OTC level vs Untreated (±Standard Deviation): triplicate (Table 14)
OTC [2] = assay: OTC expression modulated by compounds, OTC/GeoMean of housekeeping genes, DMSO = 1 (Table 3A); assay type: cell-based, human; settings: 10 uM final concentration
NAGS = assay type: cell-based, human; settings: primary human hepatocytes, RNA-seq (Table 6)
[3] = primary human hepatocytes, RNA-seq
[4] = Example 11, relative mRNA vs DMSO

SMILES: CNC[C@H](O)c1ccc(O)c(O)c1 [Epinephrine]
- Fold change (Log 2) vs untreated, ARG1 expression (ARG1): 2.28 Log 2
- Up-regulated Genes (urea cycle genes): CPS1, ASS1, ASL, ARG1, SLC25A15
- number of urea cycle genes whose expression was significantly up-regulated (urea cycle genes): five
- CPS1 expression, Fold change (Log 2) vs untreated (CPS1): 4.85 Log 2
- ASL expression, Fold change (Log 2) vs untreated (ASL): 0.6 Log 2
- Fold change (Log 2) vs untreated, SLC25A15 expression (SLC25A15): 1.14 Log 2
- Fold change (Log 2) vs untreated, ASS1 expression (ASS1): 1.08 Log 2

SMILES: COc1cccc2c1C(=O)c1c(O)c3c(c(O)c1C2=O)C[C@@](O)(/C(CO)=N/NC(=O)CCCCCN1C(=O)C=CC1=O)C[C@@H]3O[C@H]1C[C@H](N)[C@H](O)[C@H](C)O1 [INNO-206 (aldoxorubicin), aldoxorubicin]
- OTC expression, Fold change (Log 2) vs untreated (OTC [1]; [3]): 0.87 Log 2
- Max Value (OTC/GeoMean of HKs; DMSO = 1) (OTC [2]): 2.36
- Fold change (Log 2) vs untreated, NAGS expression (NAGS): 1.63 Log 2
- number of urea cycle genes whose expression was significantly up-regulated (urea cycle genes; [3]): three
- Up-regulated Genes (urea cycle genes; primary human hepatocytes, RNA-seq, urea cycle-related genes significantly increased (Table 10)): NAGS, ASS1, OTC
- Fold change (Log 2) vs untreated, ASS1 expression (ASS1; primary human hepatocytes, RNA-seq (Table 4)): 0.58 Log 2

SMILES: CN(c1ncccc1CNc1nc(Nc2ccc3c(c2)CC(=O)N3)ncc1C(F)(F)F)S(C)(=O)=O [PF-00562271]
- Relative OTC level vs Untreated (±Standard Deviation) (OTC [1]; 3 uM, primary human hepatocytes): 3.27 ± 0.59
- Relative OTC level vs Untreated (±Standard Deviation) (OTC [1]; 10 uM, primary human hepatocytes): 7.05 ± 1.14
- increase in OTC gene expression (Table 14, FIG. 6) (OTC [1]; [4]): greatest increase
- Max Value (OTC/GeoMean of HKs; DMSO = 1) (OTC [2]): 3.3
- Relative ARGI level vs Untreated (±Standard Deviation) (ARG1; 10 μM, triplicate (Table 17, FIG. 9)): 1.32 ± 0.33
- Relative ARGI level vs Untreated (±Standard Deviation) (ARG1; 10 uM, triplicate (Table 18, FIG. 10)): 2.53 ± 0.36
- increase in ARG1 gene expression (Tables 17, 18, FIG. 9, 10) (ARG1; [4]): greatest increase
- Relative CPS1 level vs Untreated (±Standard Deviation) (CPS1; 3 uM): 2.33 ± 0.58
- Relative CPS1 level vs Untreated (±Standard Deviation) (CPS1; 10 uM): 4.70 ± 0.49
- increase in CPS1 gene expression (Tables 19, 20, FIG. 11, 12) (CPS1; [4]): greatest increase
- Relative ASL level vs Untreated (±Standard Deviation) (ASL; 3 uM): 2.09 ± 0.67
- Relative ASL level vs Untreated (±Standard Deviation) (ASL; 10 uM): 4.92 ± 1.05
- increase in ASL gene expression (Table 25, FIG. 17) (ASL; [4]): greatest increase
- Relative ASS1 level vs Untreated (±Standard Deviation) (ASS1; 10 uM, primary human hepatocytes, triplicate (Table 15, FIG. 8)): 2.30 ± 0.41
